Columns and labels:
Test in all cases: Kinase panel, CaNDY 1 µM
Assay type in all cases: biochemical
Settings in all cases: CaNDY 1 µM relative to DMSO
[1] = target: T1, ABL(E255K) (Homo sapiens, UniProt P00519, E255K)
T1 construct: purchased Carna Biosciences
Text: (§1) Detailed information on the assay conditions is available on the website of Carna Biosciences (http://www.carnabio.com/english/index.html; Kobe, Japan). In brief, full-length human recombinant kinases were expressed using a baculovirus expression system as amino-terminal GST-fusion proteins, and purified by glutathione-Sepharose chromatography. The GenBank accession numbers of DYRK1A, DYRK1B, DYRK2, and DYRK3 were NP_001387.2, NP_004705.1, NP_003574.1, and NP_003573.2. Kinase activities were evaluated by Off-chip Mobility Shift Assay after reaction of 1 μM of the substrate DYRKtide-F with ATP (25 μM for DYRK1A, 50 μM for DYRK1B, 10 μM for DYRK2, and 5 μM for DYRK3). For each compound, a DMSO solution was diluted in assay buffer to yield a final concentration of 1% DMSO. After incubation for one hour at room temperature, substrate phosphorylation was analyzed by electrophoretic separation of the substrate and products using a Caliper LC3000 platform (Caliper Life Sciences, Mountain View, CA, USA). The phosphorylated product (P)/(P + substrate) ratio was calculated at each concentration of each small molecule and the percent inhibition was expressed relative to a control assay in the absence of the small molecule. […] The IC50 of each compound was calculated by interpolation on a log-concentration-response curve fitted with a four-parameter logistic equation.
(§2) All kinase assays were carried out at Carna Biosciences. The inhibitory map was made with Kinome Render[36].

[2] = target: T2, ALK (Homo sapiens, UniProt Q9UM73)
T2 construct: purchased Carna Biosciences
Text: as §1, §2

[3] = target: T3, AMPKα1/β1/γ1 (Homo sapiens, UniProt Q13131)
T3 construct: purchased Carna Biosciences
Text: as §1, §2

[4] = target: T4, AurB (Homo sapiens, UniProt Q96GD4)
T4 construct: purchased Carna Biosciences
Text: as §1, §2

[5] = target: T5, AurC (Homo sapiens, UniProt Q9UQB9)
T5 construct: purchased Carna Biosciences
Text: as §1, §2

[6] = target: T6, CK1γ3 (Homo sapiens, UniProt Q9Y6M4)
T6 construct: purchased Carna Biosciences
T6 sequence (Q9Y6M4 whole entry): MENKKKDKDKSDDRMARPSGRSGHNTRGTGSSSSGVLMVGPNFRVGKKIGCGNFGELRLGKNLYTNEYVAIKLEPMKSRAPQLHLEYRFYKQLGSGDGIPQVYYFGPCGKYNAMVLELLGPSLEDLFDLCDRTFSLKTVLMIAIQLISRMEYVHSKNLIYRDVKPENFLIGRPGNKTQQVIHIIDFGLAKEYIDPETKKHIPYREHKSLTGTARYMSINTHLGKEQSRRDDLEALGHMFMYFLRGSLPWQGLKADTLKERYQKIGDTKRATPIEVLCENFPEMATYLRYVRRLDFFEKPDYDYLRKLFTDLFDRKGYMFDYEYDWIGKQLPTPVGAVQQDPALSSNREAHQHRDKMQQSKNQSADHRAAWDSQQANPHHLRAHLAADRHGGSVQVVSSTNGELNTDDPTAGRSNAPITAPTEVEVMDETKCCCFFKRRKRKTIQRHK
Text: as §1, §2

[7] = target: T7, CK1δ (Homo sapiens, UniProt P48730)
T7 construct: purchased Carna Biosciences
Text: as §1, §2

[8] = target: T8, DCAMKL2 (Homo sapiens, UniProt Q8N568)
T8 construct: purchased Carna Biosciences
Text: as §1, §2

[9] = target: T9, EPHA1 (Homo sapiens, UniProt P21709)
T9 construct: purchased Carna Biosciences
Text: as §1, §2

[10] = target: T10, EPHA2 (Homo sapiens, UniProt P29317)
T10 construct: purchased Carna Biosciences
Text: as §1, §2

[11] = target: T11, EPHA4 (Homo sapiens, UniProt P54764)
T11 construct: purchased Carna Biosciences
T11 sequence (P54764 20-986): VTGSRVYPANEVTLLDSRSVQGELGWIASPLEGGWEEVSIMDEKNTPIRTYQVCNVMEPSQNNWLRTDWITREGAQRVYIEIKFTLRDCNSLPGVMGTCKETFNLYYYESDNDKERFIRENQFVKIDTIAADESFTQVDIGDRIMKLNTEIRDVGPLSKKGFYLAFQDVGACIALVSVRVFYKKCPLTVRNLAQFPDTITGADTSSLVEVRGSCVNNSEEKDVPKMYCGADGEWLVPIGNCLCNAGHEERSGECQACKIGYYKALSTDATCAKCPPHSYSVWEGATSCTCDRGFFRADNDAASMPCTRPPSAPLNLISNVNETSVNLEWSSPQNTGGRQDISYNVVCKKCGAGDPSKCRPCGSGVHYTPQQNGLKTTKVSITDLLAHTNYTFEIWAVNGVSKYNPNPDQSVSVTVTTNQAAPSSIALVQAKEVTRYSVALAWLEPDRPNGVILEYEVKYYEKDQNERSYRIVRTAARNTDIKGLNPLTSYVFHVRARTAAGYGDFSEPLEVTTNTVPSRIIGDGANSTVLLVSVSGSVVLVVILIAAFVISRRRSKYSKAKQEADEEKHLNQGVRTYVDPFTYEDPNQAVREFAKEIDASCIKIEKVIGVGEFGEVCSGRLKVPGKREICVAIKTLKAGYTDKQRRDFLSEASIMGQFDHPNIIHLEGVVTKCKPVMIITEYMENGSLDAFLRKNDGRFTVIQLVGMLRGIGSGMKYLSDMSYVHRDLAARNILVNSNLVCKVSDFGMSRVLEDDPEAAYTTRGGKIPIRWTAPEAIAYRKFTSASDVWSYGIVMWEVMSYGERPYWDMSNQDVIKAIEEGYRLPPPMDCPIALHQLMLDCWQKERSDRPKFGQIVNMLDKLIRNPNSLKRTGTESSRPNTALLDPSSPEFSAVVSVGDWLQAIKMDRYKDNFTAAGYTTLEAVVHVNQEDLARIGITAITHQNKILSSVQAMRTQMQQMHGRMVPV
Text: as §1, §2

[12] = target: T12, EPHA6 (Homo sapiens, UniProt Q9UF33)
T12 construct: purchased Carna Biosciences
Text: as §1, §2

[13] = target: T13, EPHA8 (Homo sapiens, UniProt P29322)
T13 construct: purchased Carna Biosciences
Text: as §1, §2

[14] = target: T14, EPHB4 (Homo sapiens, UniProt P54760)
T14 construct: purchased Carna Biosciences
Text: as §1, §2

[15] = target: T15, Erk5 (Homo sapiens, UniProt Q13164)
T15 construct: purchased Carna Biosciences
Text: as §1, §2

[16] = target: T16, FES (Homo sapiens, UniProt P07332)
T16 construct: purchased Carna Biosciences
Text: as §1, §2

[17] = target: T17, FGFR2 (Homo sapiens, UniProt P21802)
T17 construct: purchased Carna Biosciences
Text: as §1, §2

[18] = target: T18, FGFR3(K650M) (Homo sapiens, UniProt P22607, K650M)
T18 construct: purchased Carna Biosciences
Text: as §1, §2

[19] = target: T19, HER4 (Homo sapiens, UniProt Q15303)
T19 construct: purchased Carna Biosciences
T19 sequence (Q15303 26-1308): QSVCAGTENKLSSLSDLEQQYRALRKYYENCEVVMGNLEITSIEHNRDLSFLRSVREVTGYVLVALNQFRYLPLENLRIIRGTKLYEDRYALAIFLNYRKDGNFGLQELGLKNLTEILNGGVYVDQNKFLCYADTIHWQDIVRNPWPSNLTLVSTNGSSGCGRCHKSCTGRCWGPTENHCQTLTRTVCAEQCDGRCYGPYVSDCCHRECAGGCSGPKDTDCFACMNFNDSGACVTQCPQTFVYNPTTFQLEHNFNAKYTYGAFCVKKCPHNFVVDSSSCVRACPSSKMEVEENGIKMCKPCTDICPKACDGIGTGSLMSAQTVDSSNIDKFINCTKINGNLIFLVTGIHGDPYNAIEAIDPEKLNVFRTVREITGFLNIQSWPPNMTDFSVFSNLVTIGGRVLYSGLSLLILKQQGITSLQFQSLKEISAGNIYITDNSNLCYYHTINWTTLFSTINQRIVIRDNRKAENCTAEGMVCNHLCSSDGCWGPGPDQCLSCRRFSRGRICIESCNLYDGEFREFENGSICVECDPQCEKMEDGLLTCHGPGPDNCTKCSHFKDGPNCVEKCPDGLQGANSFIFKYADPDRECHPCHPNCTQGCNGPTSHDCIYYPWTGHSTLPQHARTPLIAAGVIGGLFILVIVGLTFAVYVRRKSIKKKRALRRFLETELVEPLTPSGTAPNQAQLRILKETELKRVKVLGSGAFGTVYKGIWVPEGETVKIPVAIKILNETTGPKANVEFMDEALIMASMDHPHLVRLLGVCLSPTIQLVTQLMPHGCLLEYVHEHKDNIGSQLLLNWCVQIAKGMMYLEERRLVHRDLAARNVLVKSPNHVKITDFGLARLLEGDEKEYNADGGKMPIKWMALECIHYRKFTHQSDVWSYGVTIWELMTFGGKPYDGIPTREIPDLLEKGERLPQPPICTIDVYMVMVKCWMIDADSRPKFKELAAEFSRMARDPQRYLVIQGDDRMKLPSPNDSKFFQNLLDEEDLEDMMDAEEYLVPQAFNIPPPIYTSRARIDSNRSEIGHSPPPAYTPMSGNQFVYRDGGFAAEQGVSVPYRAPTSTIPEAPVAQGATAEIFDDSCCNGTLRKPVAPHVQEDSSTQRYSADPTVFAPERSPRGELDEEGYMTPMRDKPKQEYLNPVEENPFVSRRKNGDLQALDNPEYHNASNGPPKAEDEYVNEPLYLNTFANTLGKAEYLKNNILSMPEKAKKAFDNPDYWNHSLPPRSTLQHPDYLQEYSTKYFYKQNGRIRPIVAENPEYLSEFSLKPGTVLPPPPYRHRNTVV
Text: as §1, §2

[20] = target: T20, HIPK3 (Homo sapiens, UniProt Q9H422)
T20 construct: purchased Carna Biosciences
Text: as §1, §2

[21] = target: T21, IKKε (Homo sapiens, UniProt Q14164)
T21 construct: purchased Carna Biosciences
Text: as §1, §2

[22] = target: T22, KIT(D816V) (Homo sapiens, UniProt P10721, D816V)
T22 construct: purchased Carna Biosciences
Text: as §1, §2

[23] = target: T23, LOK (Homo sapiens, UniProt O94804)
T23 construct: purchased Carna Biosciences
Text: as §1, §2

[24] = target: T24, MAP2K3_Cascade (Homo sapiens, UniProt P46734)
T24 construct: purchased Carna Biosciences
Text: as §1, §2

[25] = target: T25, MAPKAPK2 (Homo sapiens, UniProt P49137)
T25 construct: purchased Carna Biosciences
T25 sequence (P49137 whole entry): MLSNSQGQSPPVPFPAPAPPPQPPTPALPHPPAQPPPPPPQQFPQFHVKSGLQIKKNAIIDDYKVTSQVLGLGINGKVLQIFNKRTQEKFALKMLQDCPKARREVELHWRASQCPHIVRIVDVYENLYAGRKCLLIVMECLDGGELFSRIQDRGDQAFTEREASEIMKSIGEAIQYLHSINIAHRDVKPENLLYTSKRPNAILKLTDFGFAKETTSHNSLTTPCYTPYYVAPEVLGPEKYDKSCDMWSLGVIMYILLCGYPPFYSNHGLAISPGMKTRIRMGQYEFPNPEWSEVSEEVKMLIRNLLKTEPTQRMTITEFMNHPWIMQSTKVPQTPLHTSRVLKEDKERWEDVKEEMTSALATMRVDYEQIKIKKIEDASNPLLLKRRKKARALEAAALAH
Text: as §1, §2

[26] = target: T26, MGC42105 (Homo sapiens, UniProt Q8IY84)
T26 construct: purchased Carna Biosciences
T26 sequence (Q8IY84 whole entry): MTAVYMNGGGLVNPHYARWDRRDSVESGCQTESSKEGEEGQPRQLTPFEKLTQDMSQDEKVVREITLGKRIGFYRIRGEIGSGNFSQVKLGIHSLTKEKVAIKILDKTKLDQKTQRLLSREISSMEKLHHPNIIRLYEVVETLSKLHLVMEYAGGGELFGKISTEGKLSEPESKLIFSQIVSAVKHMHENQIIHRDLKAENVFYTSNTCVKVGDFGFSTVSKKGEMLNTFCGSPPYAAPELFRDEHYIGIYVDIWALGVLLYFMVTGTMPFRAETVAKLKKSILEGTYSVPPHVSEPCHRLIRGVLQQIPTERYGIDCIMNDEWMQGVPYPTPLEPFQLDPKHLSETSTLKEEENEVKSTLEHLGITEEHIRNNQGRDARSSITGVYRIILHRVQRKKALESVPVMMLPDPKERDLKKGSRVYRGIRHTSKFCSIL
Text: as §1, §2

[27] = target: T27, PKACβ (Homo sapiens, UniProt P22694)
T27 construct: purchased Carna Biosciences
Text: as §1, §2

[28] = target: T28, PKACγ (Homo sapiens, UniProt P22612)
T28 construct: purchased Carna Biosciences
Text: as §1, §2

[29] = target: T29, PKR (Homo sapiens, UniProt P19525)
T29 construct: purchased Carna Biosciences
T29 sequence (P19525 whole entry): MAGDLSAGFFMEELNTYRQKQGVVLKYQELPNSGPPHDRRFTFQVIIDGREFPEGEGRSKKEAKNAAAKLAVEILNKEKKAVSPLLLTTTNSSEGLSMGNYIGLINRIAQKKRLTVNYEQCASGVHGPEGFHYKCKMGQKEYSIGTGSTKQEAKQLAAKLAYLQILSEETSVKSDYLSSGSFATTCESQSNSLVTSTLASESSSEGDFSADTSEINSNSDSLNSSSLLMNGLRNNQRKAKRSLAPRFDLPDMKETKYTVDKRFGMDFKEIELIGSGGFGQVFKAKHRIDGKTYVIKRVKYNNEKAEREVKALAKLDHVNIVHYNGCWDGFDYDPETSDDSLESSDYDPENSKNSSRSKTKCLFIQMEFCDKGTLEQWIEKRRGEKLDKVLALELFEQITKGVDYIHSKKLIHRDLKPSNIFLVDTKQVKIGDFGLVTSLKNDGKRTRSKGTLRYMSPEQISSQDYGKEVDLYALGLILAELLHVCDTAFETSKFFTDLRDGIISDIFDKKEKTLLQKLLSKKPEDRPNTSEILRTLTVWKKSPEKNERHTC
Text: as §1, §2

[30] = target: T30, RET(Y791F) (Homo sapiens, UniProt P07949, Y791F)
T30 construct: purchased Carna Biosciences
Text: as §1, §2

[31] = target: T31, SGK2 (Homo sapiens, UniProt Q9HBY8)
T31 construct: purchased Carna Biosciences
T31 sequence (Q9HBY8 whole entry): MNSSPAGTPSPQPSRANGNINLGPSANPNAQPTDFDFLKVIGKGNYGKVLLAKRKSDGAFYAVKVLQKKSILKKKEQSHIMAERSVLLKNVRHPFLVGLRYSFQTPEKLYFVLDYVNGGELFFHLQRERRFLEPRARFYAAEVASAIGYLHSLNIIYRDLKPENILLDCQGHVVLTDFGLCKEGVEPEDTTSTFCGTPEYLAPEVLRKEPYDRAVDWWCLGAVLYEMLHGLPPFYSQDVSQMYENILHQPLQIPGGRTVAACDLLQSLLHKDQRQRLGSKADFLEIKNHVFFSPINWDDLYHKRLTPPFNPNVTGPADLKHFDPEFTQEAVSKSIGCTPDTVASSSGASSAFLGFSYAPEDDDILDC
Text: as §1, §2

[32] = target: T32, SRC (Homo sapiens, UniProt P12931)
T32 construct: purchased Carna Biosciences
Text: as §1, §2

[33] = target: T33, TSSK2 (Homo sapiens, UniProt Q96PF2)
T33 construct: purchased Carna Biosciences
Text: as §1, §2

[34] = target: T34, TXK (Homo sapiens, UniProt P42681)
T34 construct: purchased Carna Biosciences
T34 sequence (P42681 whole entry): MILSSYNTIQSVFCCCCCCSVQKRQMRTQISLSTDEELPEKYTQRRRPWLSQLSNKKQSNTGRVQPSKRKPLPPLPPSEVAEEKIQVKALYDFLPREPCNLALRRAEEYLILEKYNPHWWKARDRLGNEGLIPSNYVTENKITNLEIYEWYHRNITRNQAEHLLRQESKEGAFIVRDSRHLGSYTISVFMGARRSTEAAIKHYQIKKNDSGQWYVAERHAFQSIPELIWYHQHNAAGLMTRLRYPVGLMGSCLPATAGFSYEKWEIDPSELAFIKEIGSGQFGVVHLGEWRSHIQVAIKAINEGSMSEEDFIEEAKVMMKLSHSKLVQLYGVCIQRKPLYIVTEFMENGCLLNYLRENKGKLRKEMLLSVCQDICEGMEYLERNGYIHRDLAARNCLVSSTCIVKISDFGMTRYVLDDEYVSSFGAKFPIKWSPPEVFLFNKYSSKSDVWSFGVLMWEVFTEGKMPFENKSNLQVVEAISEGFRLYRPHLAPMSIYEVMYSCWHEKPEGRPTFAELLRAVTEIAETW
Text: as §1, §2

[35] = target: T35, WNK2 (Homo sapiens, UniProt Q9Y3S1)
T35 construct: purchased Carna Biosciences
Text: as §1, §2

[36] = target: T36, p38β (Homo sapiens, UniProt Q15759)
T36 construct: purchased Carna Biosciences
Text: as §1, §2

[H]/N=C1/NC(=O)C(=Cc2ccc3c(c2)CCO3)S1 [CaNDY, (Z)-5-[(2,3-dihydrobenzofuran-5-yl)methylene]-2-iminothiazolidin-4-one]
remaining activity at 1 µM [1]: 104% | remaining activity at 1 µM [2]: 98.7% | remaining activity at 1 µM [3]: 91.9% | remaining activity at 1 µM [4]: 95.1% | remaining activity at 1 µM [5]: 97% | %Activity [6]: 79.0% | remaining activity at 1 µM [7]: 67.9% | remaining activity at 1 µM [8]: 102% | remaining activity at 1 µM [9]: 95.5% | remaining activity at 1 µM [10]: 100% | remaining activity at 1 µM [11]: 102% | remaining activity at 1 µM [12]: 96.8% | remaining activity at 1 µM [13]: 101% | remaining activity at 1 µM [14]: 96.6% | remaining activity at 1 µM [15]: 104% | remaining activity at 1 µM [16]: 109% | remaining activity at 1 µM [17]: 104% | remaining activity at 1 µM [18]: 101% | remaining activity at 1 µM [19]: 111% | remaining activity at 1 µM [20]: 22.4% | remaining activity at 1 µM [21]: 97.6% | remaining activity at 1 µM [22]: 92.2% | %Activity [23]: 106.3% | remaining activity at 1 µM [24]: 101% | remaining activity at 1 µM [25]: 100% | remaining activity at 1 µM [26]: 102% | remaining activity at 1 µM [27]: 92.5% | remaining activity at 1 µM [28]: 78.2% | %Activity [29]: 95.4% | remaining activity at 1 µM [30]: 100% | remaining activity at 1 µM [31]: 88.6% | remaining activity at 1 µM [32]: 102% | remaining activity at 1 µM [33]: 102% | remaining activity at 1 µM [34]: 96.8% | remaining activity at 1 µM [35]: 101% | remaining activity at 1 µM [36]: 99.7%
